In patent US20240067693A1, “POLYPEPTIDES AND USES THEREOF” (MEDIMMUNE LIMITED, priority 2020, published 2024):
Numbered stars: 1 amine (or outer) side, 2 acyl side, 3 side chain; on linkers, the order of the positions; unused ones are H or OH. Bridge positions count the residues as written; N and C are the ends. Square brackets hold non-standard residues; d marks the D form. Side chains are listed from the residue outwards. Peptide text beside a SMILES is read from it. * marks the point of attachment. C18 diacid = O=C(O)CCCCCCCCCCCCCCCCC(=O)*; γGlu = O=C(O)[C@H](CCC(=O)[*:2])N[*:1]; Aib = CC(C)(N)C(=O)O

Assays:
[1] = target: T1, human amylin receptor (calcitonin receptor co-expressed with receptor activity modifying protein, RAMP3) (hAMYR3) (Homo sapiens, UniProt O60896+P30988); test: cAMP production in 1321N1 cells with stable recombinant expression of human amylin receptor (hAMYR3); format: cell-based; conditions: for Ratio (selectivity hAMYR vs hCTR, ratio of EC50 values at the two receptors): EC50 hCTR / EC50 hAMYR3; for EC50: cAMP, 1321N1 cells, assay buffer with 0.1% BSA, read-out: EC50 (pM) hAMYR3
T1 construct: expressed in transfected cells
T1 sequence (P30988 25-474): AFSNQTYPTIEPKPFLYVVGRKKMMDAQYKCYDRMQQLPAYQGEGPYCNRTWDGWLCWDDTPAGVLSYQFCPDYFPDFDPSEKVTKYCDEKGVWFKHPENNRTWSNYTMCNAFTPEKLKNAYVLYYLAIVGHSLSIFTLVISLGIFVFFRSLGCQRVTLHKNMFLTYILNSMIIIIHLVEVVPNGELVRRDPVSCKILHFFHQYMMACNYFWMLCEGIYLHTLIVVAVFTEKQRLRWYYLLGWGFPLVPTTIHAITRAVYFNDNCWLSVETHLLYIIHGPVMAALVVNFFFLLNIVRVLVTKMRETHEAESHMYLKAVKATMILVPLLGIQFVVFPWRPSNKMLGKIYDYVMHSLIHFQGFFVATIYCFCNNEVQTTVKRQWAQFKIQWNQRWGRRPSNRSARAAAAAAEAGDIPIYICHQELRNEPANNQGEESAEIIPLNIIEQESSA
T1 sequence (O60896 24-148 partner): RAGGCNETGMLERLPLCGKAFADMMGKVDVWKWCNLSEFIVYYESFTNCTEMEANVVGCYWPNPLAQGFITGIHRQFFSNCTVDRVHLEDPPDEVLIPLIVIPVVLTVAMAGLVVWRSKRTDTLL
In short: (§1)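 Receptor-expressing cells (human receptors in 1321N1, rat receptors in HEK) incubated 30 min at room temperature with peptide in HBSS/HEPES pH 7.4, 0.1% BSA, 0.5 mM IBMX. cAMP read by HTRF; EC50 from 4-parameter fit as % of maximal amylin or calcitonin response.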

[2] = target: T2, human calcitonin receptor (hCTR) (Homo sapiens, UniProt P30988); test: cAMP production in 1321N1 cells with stable recombinant expression of human calcitonin receptor (hCTR); format: cell-based; conditions: cAMP, 1321N1 cells, assay buffer with 0.1% BSA; read-out: EC50 (pM) hCTR
T2 construct: expressed in transfected cells
T2 sequence (P30988 25-474): T1 sequence (P30988 25-474)
In short: as §1

SMILES: CC[C@H](C)[C@H](NC(=O)[C@@H]1CCCN1C(=O)CNC(=O)[C@H](Cc1ccccc1)NC(=O)[C@H](CC(N)=O)NC(=O)C(C)(C)NC(=O)[C@H](CO)NC(=O)[C@H](CO)NC(=O)[C@H](Cc1c[nH]cn1)NC(=O)[C@@H](NC(=O)[C@H](CC(C)C)NC(=O)[C@H](Cc1ccccc1)NC(=O)[C@H](CC(N)=O)NC(=O)[C@H](C)NC(=O)[C@H](CC(C)C)NC(=O)[C@H](CCCNC(=N)N)NC(=O)[C@H](CCC(N)=O)NC(=O)[C@@H](NC(=O)[C@H](C)NC(=O)[C@@H]1CSSC[C@H](NC(=O)[C@H](CCCCN)NC(=O)[C@@H](N)CCCCNC(=O)CC[C@H](NC(=O)CCCCCCCCCCCCCCCCC(=O)O)C(=O)O)C(=O)N[C@@H](CC(N)=O)C(=O)N[C@@H]([C@@H](C)O)C(=O)N[C@@H](C)C(=O)N[C@@H]([C@@H](C)O)C(=O)N1)[C@@H](C)O)C(C)C)C(=O)N[C@@H](CC(C)C)C(=O)N1CCC[C@H]1C(=O)N1CCC[C@H]1C(=O)N[C@H](C(=O)N[C@@H](CC(N)=O)C(=O)N[C@H](C(=O)NCC(=O)N[C@@H](CO)C(=O)NC(C)(C)C(=O)N[C@H](C(=O)N[C@@H](Cc1ccc(O)cc1)C(N)=O)[C@@H](C)O)C(C)C)[C@@H](C)O [Peptide 82, K(γE-C18diacid)K[CNTATC]ATQRLANFLVHSS(Aib)NFGPILPPTNVGS(Aib)TY-amide] (H-K([γGlu-C18 diacid])KCNTATCATQRLANFLVHSS[Aib]NFGPILPPTNVGS[Aib]TY-NH2; disulfide 3-8)
- Ratio (selectivity hAMYR vs hCTR, ratio of EC50 values at the two receptors) [1]: 8
- EC50 [1]: 514 pM
- EC50 [2]: 4280 pM

SMILES: CC[C@H](C)[C@H](NC(=O)[C@@H]1CCCN1C(=O)CNC(=O)[C@H](Cc1ccccc1)NC(=O)[C@H](CC(N)=O)NC(=O)C(C)(C)NC(=O)[C@H](CO)NC(=O)[C@H](CO)NC(=O)[C@H](Cc1c[nH]cn1)NC(=O)[C@@H](NC(=O)[C@H](CC(C)C)NC(=O)[C@H](Cc1ccccc1)NC(=O)[C@H](CC(N)=O)NC(=O)[C@H](C)NC(=O)[C@H](CC(C)C)NC(=O)[C@H](CCCNC(=N)N)NC(=O)[C@H](CCC(N)=O)NC(=O)[C@@H](NC(=O)[C@H](C)NC(=O)[C@@H]1CSSC[C@H](NC(=O)[C@H](CCCCN)NC(=O)[C@@H](N)CCCCNC(=O)CC[C@H](NC(=O)CCCCCCCCCCCCCCCCC(=O)O)C(=O)O)C(=O)N[C@@H](CC(N)=O)C(=O)N[C@@H]([C@@H](C)O)C(=O)N[C@@H](C)C(=O)N[C@@H]([C@@H](C)O)C(=O)N1)[C@@H](C)O)C(C)C)C(=O)N[C@@H](CC(C)C)C(=O)N1CCC[C@H]1C(=O)N1CCC[C@H]1C(=O)N[C@H](C(=O)N[C@@H](CC(N)=O)C(=O)N[C@H](C(=O)NCC(=O)N[C@@H](CO)C(=O)N[C@@H](CCC(=O)O)C(=O)N[C@H](C(=O)N[C@@H](Cc1ccc(O)cc1)C(N)=O)[C@@H](C)O)C(C)C)[C@@H](C)O [Peptide 42, K(γE-C18diacid)K[CNTATC]ATQRLANFLVHSS(Aib)NFGPILPPTNVGSETY-amide] (H-K([γGlu-C18 diacid])KCNTATCATQRLANFLVHSS[Aib]NFGPILPPTNVGSETY-NH2; disulfide 3-8)
- Ratio (selectivity hAMYR vs hCTR, ratio of EC50 values at the two receptors) [1]: 6
- EC50 [1]: 470 pM
- EC50 [2]: 2950 pM
